Patent publication US20080045537A1, “Chemical Compounds” (priority 2004, published 2008)

System: HIV-1 IIIB (T-tropic, CXCR4 utilizing)
Assay: HOS HIV-1 infectivity assay
Assay type: cell-based
Conditions: Human immunodeficiency virus 1, IIIB; as determined by the infectivity assay; strain not stated in Table 2; read-out: Activity Level
Protocol: Compounds were profiled against two HIV-1 viruses, the M-tropic (CCR5 utilizing) Ba-L strain and the T-tropic (CXCR4 utilizing) IIIB strain. Both viruses were propagated in human peripheral blood lymphocytes. Compounds were tested for there ability to block infection of the HOS cell line (expressing hCXCR4/hCCR5/hCD4/pHIV-LTR-luciferase) by either HIV-1 Ba-L or HIV-1 IIIB. Compound cytotoxicity was also examined in the absence of virus addition.
HOS cells (expressing hCXCR4/hCCR5/hCD4/pHIV-LTR-luciferase) were harvested and diluted in Dulbeccos modified Eagles media supplemented with 2% FCS and non-essential amino acid to a concentration of 60,000 cells/ml. The cells were plated into 96-well plates (100 ul per well) and the plates were placed in a tissue culture incubator (37° C.; 5% CO2/95% air) for a period of 24 h.
Subsequently, 50 ul of the desired drug solution (4 times the final concentration) was added to each well and the plates were returned to the tissue culture incubator (37° C.; 5% CO2/95% air) for 1 h. Following this incubation 50 ul of diluted virus was added to each well (approximately 2 million RLU per well of virus). The plates were returned to the tissue culture incubator (37° C.; 5% CO2/95% air) and were incubated for a further 96 h.
Following this incubation the endpoint for the virally infected cultures was quantified following addition of Steady-Glo Luciferase assay system reagent (Promega, Madison, Wis.). Cell viability or non-infected cultures was measured using a CellTiter-Glo luminescent cell viability assay system (Promega, Madison, Wis.). All luminescent readouts are performed on a Topcount luminescence detector (Packard, Meridien, Conn.).

| SMILES | IC50 [nM] |
| --- | --- |
| CN(Cc1nc2c(NC(=O)CCN3CCCCC3)cccc2[nH]1)C1CCCc2cccnc21 (stereo not drawn) [Example 100, N-(2-{[methyl(5,6,7,8-tetrahydro-8-quinolinyl)amino]methyl}-1H-benzimidazol-4-yl)-3-(1-piperidinyl)propanamide] | 100 to 500 |
| CN(Cc1nc2c(-n3ccnc3)cccc2[nH]1)C1CCCc2cccnc21 (stereo not drawn) [Example 101, N-{[4-(1H-Imidazol-1-yl)-1H-benzimidazol-2-yl]methyl}-N-methyl-5,6,7,8-tetrahydro-8-quinolinamine] | 100 to 500 |
| CN(Cc1nc2c(NC(=O)c3cccnc3)cccc2[nH]1)C1CCCc2cccnc21 (stereo not drawn) [Example 102, N-(2-{[Methyl(5,6,7,8-tetrahydro-8-quinolinyl)amino]methyl}-1H-benzimidazol-4-yl)-3-pyridinecarboxamide] | 100 to 500 |
| CN(Cc1nc2c(NC(=O)c3ccncc3)cccc2[nH]1)C1CCCc2cccnc21 (stereo not drawn) [Example 103, N-(2-{[Methyl(5,6,7,8-tetrahydro-8-quinolinyl)amino]methyl}-1H-benzimidazol-4-yl)-4-pyridinecarboxamide] | 500 to 10000 |
| CN(Cc1nc2c(NC(=O)[C@@H]3CCCN3C)cccc2[nH]1)C1CCCc2cccnc21 (stereo partly drawn) [Example 104, 1-Methyl-N-(2-{[methyl(5,6,7,8-tetrahydro-8-quinolinyl)amino]methyl}-1H-benzimidazol-4-yl)-L-prolinamide] | 100 to 500 |
| CN(Cc1nc2c(NC(=O)C(C)(C)N)cccc2[nH]1)C1CCCc2cccnc21 (stereo not drawn) [Example 105, 2-Methyl-N-1-(2-{[methyl(5,6,7,8-tetrahydro-8-quinolinyl)amino]methyl}-1H-benzimidazol-4-yl)alaninamide] | 100 to 500 |
| CN(C)CCCNc1cccc2[nH]c(CN(C)C3CCCc4cccnc43)nc12 (stereo not drawn) [Example 106, [3-(Dimethylamino)propyl](2-{[methyl(5,6,7,8-tetrahydro-8-quinolinyl)amino]methyl}-1H-benzimidazol-4-yl)amine] | 100 to 500 |
| CN(C)CCNc1cccc2[nH]c(CN(C)C3CCCc4cccnc43)nc12 (stereo not drawn) [Example 107, [2-(Dimethylamino)ethyl](2-{[methyl(5,6,7,8-tetrahydro-8-quinolinyl)amino]methyl}-1H-benzimidazol-4-yl)amine] | < 100 |
| CNCCN(C)c1cccc2[nH]c(CN(C)C3CCCc4cccnc43)nc12 (stereo not drawn) [Example 108, Methyl[2-(methylamino)ethyl](2-{[methyl(5,6,7,8-tetrahydro-8-quinolinyl)amino]methyl}-1H-benzimidazol-4-yl)amine] | < 100 |
| CN(C)CCN(C)c1cccc2[nH]c(CN(C)C3CCCc4cccnc43)nc12 (stereo not drawn) [Example 109, [2-(Dimethylamino)ethyl]methyl(2-{[methyl(5,6,7,8-tetrahydro-8-quinolinyl)amino]methyl}-1H-benzimidazol-4-yl)amine] | < 100 |
| CC(=O)N1CCN(c2cccc3[nH]c(CN(C)C4CCCc5cccnc54)nc23)CC1 (stereo not drawn) [Example 110, N-{[4-(4-Acetyl-1-piperazinyl)-1H-benzimidazol-2-yl]methyl}-N-methyl-5,6,7,8-tetrahydro-8-quinolinamine] | 100 to 500 |
| CC(C)N1CCN(c2cccc3[nH]c(CN(C)C4CCCc5cccnc54)nc23)CC1 (stereo not drawn) [Example 111, N-Methyl-N-({4-[4-(1-methylethyl)-1piperazinyl]-1H-benzimidazol-2-yl}methyl)-5,6,7,8-tetrahydro-8-quinolinamine] | < 100 |
| CC(C)N(Cc1nc2c(N3CCN(C)CC3)cccc2[nH]1)C1CCCc2cccnc21 (stereo not drawn) [Example 112, N-(1-Methylethyl)-N-{[4-(4-methyl-1-piperazinyl)-1H-benzimidazol-2-yl]methyl}-5,6,7,8-tetrahydro-8-quinolinamine] | < 100 |
| CC(C)N1CCN(c2cccc3[nH]c(CN(C(C)C)C4CCCc5cccnc54)nc23)CC1 (stereo not drawn) [Example 113, N-(1-methylethyl)-N-({4-[4-(1-methylethyl)-piperazinyl]-1H-benzimidazol-2-yl}methyl)-5,6,7,8-tetrahydro-8-quinolinamine] | < 100 |
| CN1CCN(c2cccc3nc(C(C)(C)NC4CCCc5cccnc54)[nH]c23)CC1 (stereo not drawn) [Example 114, N-{1-methyl-1-[4-(4-methyl-1-piperazinyl)-1H-benzimidazol-2-yl]ethyl}-5,6,7,8-tetrahydro-8-quinolinamine] | < 100 |
| CN1CCN(c2cccc3nc(C(C)(C)N(C)C4CCCc5cccnc54)[nH]c23)CC1 (stereo not drawn) [Example 115, N-Methyl-N-{1-methyl-1-[4-(4-methyl-1-piperazinyl)-1H-benzimidazol-2-yl]ethyl}-5,6,7,8-tetrahydro-8-quinolinamine] | < 100 |
| CN(Cc1nc2c(N3CCN(C(=O)CN)CC3)cccc2[nH]1)C1CCCc2cccnc21 (stereo not drawn) [Example 116, N-({4-[4-(Aminoacetyl)-1-piperazinyl]-1H-benzimidazol-2-yl}methyl)-N-methyl-5,6,7,8-tetrahydro-8-quinolinamine] | < 100 |
| CN(Cc1nc2c(N3CCN(C(=O)c4ccccn4)CC3)cccc2[nH]1)C1CCCc2cccnc21 (stereo not drawn) [Example 117, N-Methyl-N-({4-[4-(2-pyridinylcarbonyl)-1-piperazinyl]-1H-benzimidazol-2-yl}methyl)-5,6,7,8-tetrahydro-8-quinolinamine] | 100 to 500 |
| CN1CCN(c2cccc3nc(CN(C)[C@@H]4CCCc5cccnc54)[nH]c23)CC1 [Example 133A, (8R)—N-Methyl-N-{[4-(4-methyl-1-piperazinyl)-1H-benzimidazol-2-yl]methyl}-5,6,7,8-tetrahydro-8-quinolinamine] | < 100 |
| CN1CCN(c2cccc3nc(CN(C)[C@H]4CCCc5cccnc54)[nH]c23)CC1 [Example 133B, (8S)—N-Methyl-N-{[4-(4-methyl-1-piperazinyl)-1H-benzimidazol-2-yl]methyl}-5,6,7,8-tetrahydro-8-quinolinamine] | < 100 |
| CCN(Cc1nc2cccc(N3CCN(C)CC3)c2[nH]1)[C@@H]1CCCc2cccnc21 [Example 134, (8R)—N-Ethyl-N-{[4-(4-methyl-1-piperazinyl)-1H-benzimidazol-2-yl]methyl}-5,6,7,8-tetrahydro-8-quinolinamine] | < 100 |
| CCN(Cc1nc2cccc(N3CCN(C)CC3)c2[nH]1)[C@H]1CCCc2cccnc21 [Example 135, (8S)—N-Ethyl-N-{[4-(4-methyl-1-piperazinyl)-1H-benzimidazol-2-yl]methyl}-5,6,7,8-tetrahydro-8-quinolinamine] | < 100 |
| CCCN(Cc1nc2cccc(N3CCN(C)CC3)c2[nH]1)[C@@H]1CCCc2cccnc21 [Example 136, (8R)—N-{[4-(4-methyl-1-piperazinyl)-1H-benzimidazol-2-yl]methyl}-N-propyl-5,6,7,8-tetrahydro-8-quinolinamine] | < 100 |
| CCCN(Cc1nc2cccc(N3CCN(C)CC3)c2[nH]1)[C@H]1CCCc2cccnc21 [Example 137, (8S)—N-{[4-(4-methyl-1-piperazinyl)-1H-benzimidazol-2-yl]methyl}-N-propyl-5,6,7,8-tetrahydro-8-quinolinamine] | < 100 |
| CC(C)N(Cc1nc2cccc(N3CCN(C)CC3)c2[nH]1)[C@H]1CCCc2cccnc21 [Example 138, (8S)—N-(1-Methylethyl)-N-{[4-(4-methyl-1-piperazinyl)-1H-benzimidazol-2-yl]methyl}-5,6,7,8-tetrahydro-8-quinolinamine] | < 100 |
| CN1CCN(c2cccc3nc(CN(CC4CC4)[C@@H]4CCCc5cccnc54)[nH]c23)CC1 [Example 139, (8R)—N-(Cyclopropylmethyl)-N-{[4-(4-methyl-1-piperazinyl)-1H-benzimidazol-2-yl]methyl}-5,6,7,8-tetrahydro-8-quinolinamine] | < 100 |
| CN1CCN(c2cccc3nc(CN(CC4CC4)[C@H]4CCCc5cccnc54)[nH]c23)CC1 [Example 140, (8S)—N-(Cyclopropylmethyl)-N-{[4-(4-methyl-1-piperazinyl)-1H-benzimidazol-2-yl]methyl}-5,6,7,8-tetrahydro-8-quinolinamine] | < 100 |
| CN(Cc1nc2cccc(N3CCN4CCC[C@@H]4C3)c2[nH]1)[C@H]1CCCc2cccnc21 [Example 141, (8S)—N-({4-[(8aR)-hexahydropyrrolo[1,2-a]pyrazin-2(1H)-yl]-1H-benzimidazol-2-yl}methyl)-N-methyl-5,6,7,8-tetrahydro-8-quinolinamine] | < 100 |
| CCN(Cc1nc2cccc(N3CCN4CCC[C@@H]4C3)c2[nH]1)[C@H]1CCCc2cccnc21 [Example 142, (8S)—N-Ethyl-N-({4-[(8aR)-hexahydropyrrolo[1,2-a]pyrazin-2(1H)-yl]-1H-benzimidazol-2-yl}methyl)-5,6,7,8-tetrahydro-8-quinolinamine] | < 100 |
| CCCN(Cc1nc2cccc(N3CCN4CCC[C@@H]4C3)c2[nH]1)[C@H]1CCCc2cccnc21 [Example 143, (8S)—N-({4-[(8aR)-hexahydropyrrolo[1,2-a]pyrazin-2(1H)-yl]-1H-benzimidazol-2-yl}methyl)-N-propyl-5,6,7,8-tetrahydro-8-quinolinamine] | < 100 |
